Measurements published in patent US11478458B2, “Inhibitors of short-chain dehydrogenase activity for promoting neurogenesis and inhibiting nerve cell death” (CASE WESTERN RESERVE UNIVERSITY, priority 2016, dated 2022).
Like-named read-outs stand apart in the source and are kept apart here.

Assays:
[1] = stability on incubation with hepatocyte cell lines; type: in vitro ADME
[2] = stability on incubation with hepatocyte extracts; type: in vitro ADME
[3] = chemical stability in aqueous solutions; type: physicochemical; conditions: over broad pH range
[4] = tested on: PGE2 production by cell lines; assay: PGE2 production by cell lines; type: cell-based
[5] = toxicity after IP injection into mice
EP2 receptors = molecular target: T1, EP2 receptors (Homo sapiens, UniProt P43116); conditions: in vitro; cited from earlier work
T1 construct: host or cells: neurons in vitro
T1 sequence (P43116 whole entry): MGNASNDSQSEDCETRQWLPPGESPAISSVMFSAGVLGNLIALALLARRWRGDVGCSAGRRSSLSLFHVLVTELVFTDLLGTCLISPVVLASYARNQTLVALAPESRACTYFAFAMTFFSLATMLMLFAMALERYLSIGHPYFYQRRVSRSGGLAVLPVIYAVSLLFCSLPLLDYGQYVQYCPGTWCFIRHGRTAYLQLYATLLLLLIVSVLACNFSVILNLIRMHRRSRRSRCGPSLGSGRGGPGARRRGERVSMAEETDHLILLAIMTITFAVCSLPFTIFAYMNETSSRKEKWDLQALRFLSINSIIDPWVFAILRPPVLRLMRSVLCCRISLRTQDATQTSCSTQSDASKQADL

[6] = pharmacokinetics in plasma and brain after intraperitoneal injection; type: in vivo; conditions: mouse, 25 mg/kg intraperitoneal, female C57BL/7 mice, read-out: total drug exposure (area under the curve) in brain relative to plasma
[7] = tested on: mice subjected to blast injury (traumatic brain injury); assay: learning, memory and beam walking after traumatic brain injury (blast injury); type: in vivo; conditions: blast-injured mice
Protocol: In this study, mice were on day 0 subjected to traumatic brain injury from exposure to an adjacent blast injury in an overpressure chamber. 24 hours later, on study day 1, mice treatment with (+) SW033291 at 10 mg/kg was initiated by daily intraperitoneal injection. A parallel cohort of control mice were initiated on injection with vehicle only. On study day 7, mice commenced 4 days of daily training to learn the location of a cup on a table with 20 holes equally spaced around the perimeter, in the standard Barnes maze task. […] Cohorts that are compared are sham-injured mice, mice subjected to blast injury and treated with vehicle, mice subjected to blast injury and treated with the neuroprotective agent P7C3-A20, and mice subjected to blast injury and treated with (+) SW033291. Quicker time in finding the cup on day 4 is reflective of learning.
On study day 11, mice were returned to the Barnes maze with the escape cup removed, and memory was assessed by measuring the time mice spent within 5 cm of the cup's prior location.
On study day 12-14, mice were further trained to traverse a ½ inch cylindrical rod to reach and enter a black box. On day 14, the mice performance was videotaped and counts were made of the number of times a mouse foot slipped from the beam. […] In this assay, the worst performance is recorded for mice exposed to blast-injury receiving vehicle injections.

15-PGDH = molecular target: T2, 15-PGDH (Mus musculus, UniProt Q8VCC1); assay: 15-PGDH activity in mouse brain regions after IP injection; type: in vivo; conditions: 2.5 mpk IP
T2 construct: from tissue; host or cells: mouse brain (cortex, cerebellum, pons and medulla)
T2 sequence (Q8VCC1 1-269): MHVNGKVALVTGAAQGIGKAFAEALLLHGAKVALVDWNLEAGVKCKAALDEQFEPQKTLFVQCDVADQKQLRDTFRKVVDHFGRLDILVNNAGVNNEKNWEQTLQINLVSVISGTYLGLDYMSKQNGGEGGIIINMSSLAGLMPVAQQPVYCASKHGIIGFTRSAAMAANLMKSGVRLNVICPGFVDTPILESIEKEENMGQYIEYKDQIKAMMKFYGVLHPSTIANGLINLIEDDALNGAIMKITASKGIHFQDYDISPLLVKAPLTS
Protocol: FIGS. 6(A-C) illustrate graphs showing 15-PGDH activity in the cortex (A), cerebellum (B), and pons and medulla (C) of mouse brain following IP injection of 15-PGDH inhibitor (+) SW033291 at 2.5 mpk. 15-PGDH activity was measured from the 3 regions of mouse brain using a 15-tritiated PGE2 substrate. A coupled enzymatic assay uses 15-PGDH and glutamate dehydrogenase to transfer tritium from PGE2 onto glutamate. Brain tissues were harvested for assay at the times shown following IP injection of 15-PGDH inhibitor (+)-SW033291 at 2.5 mpk.

[8] = tested on: prostaglandin E2 (PGE2) in brain; assay: PGE2 in 3 regions of the mouse brain after intraperitoneal injection; type: in vivo; conditions: 2.5 mg/kg IP, 3 hours after injection; cerebrum, cerebellum, medulla/pons; 3 mice
Text: Brain regions sampled are #1, the cerebrum, #2, the cerebellum, and #3, medulla/pons. Basal PGE2 is highest in the cerebrum and medulla/pons, and lowest in the cerebellum.

[9] = tested on: PGE2 levels in rat brain cortex; assay: PGE2 levels in rat brain cortex after IP injection; type: in vivo
Protocol: FIG. 7 illustrates a graph showing PGE2 levels in rat brain cortex following IP injection of (+) SW033291 at 2.5, 5.0, and 10.0 mg/kg. PGE2 levels are elevated in rat brain cortex 30, 120, and 180 minutes following a single IP injection of (+)-SW033291 at the noted doses.

recombinant 15-PGDH = molecular target: T3, recombinant 15-PGDH (Homo sapiens, UniProt P15428); assay: inhibition of recombinant 15-PGDH; type: biochemical
T3 sequence (P15428 1-266): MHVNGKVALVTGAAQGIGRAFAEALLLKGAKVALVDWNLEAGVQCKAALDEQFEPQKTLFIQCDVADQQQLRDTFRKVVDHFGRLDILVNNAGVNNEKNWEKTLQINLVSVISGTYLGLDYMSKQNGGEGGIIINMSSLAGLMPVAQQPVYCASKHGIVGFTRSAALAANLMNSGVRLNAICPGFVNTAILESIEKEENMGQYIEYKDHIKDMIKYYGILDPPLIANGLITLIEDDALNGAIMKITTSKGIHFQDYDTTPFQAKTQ

[10] = stability on incubation with human liver extracts; type: in vitro ADME
[11] = stability on incubation with mouse liver extracts; type: in vitro ADME
[12] = stability on incubation with rat liver extracts; type: in vitro ADME
[13] = cited from earlier work

## CCCC[S+]([O-])c1sc2nc(-c3cccs3)cc(-c3ccccc3)c2c1N (centres unmarked) [formula (IX)]
[1]
  chemical stability when incubated with hepatocyte cell lines: chemically stable
[2]
  chemical stability when incubated with hepatocyte extracts: chemically stable
[3]
  chemical stability in aqueous solutions: chemically stable
[4]
  PGE2 production by cell lines: increase PGE2 production
[5]; IP into mice at 0.3 μmole/per mouse twice daily for 21 days
  toxicity on repeated dosing: no toxicity
[5]; IP into mice at 0.6 μmole/per mouse
  immediate toxicity over 24 hours: no immediate toxicity
[5]; IP into mice at 1.2 μmole/per mouse
  immediate toxicity over 24 hours: no immediate toxicity

## CCCC1([C@H](O)C/C=C/[C@H]2[C@H](O)CC(=O)[C@@H]2CCCCCCC(=O)OC)CCC1 [butaprost]
EP2 receptors
  protection of neurons from amyloid β-peptide neurotoxicity: protected neurons

## CCCC[S+]([O-])c1sc2nc(-c3nccs3)cc(-c3cnc(C)n3C)c2c1N (single isomer, unassigned; (+)) [(+) SW209415]
[6]
  Kp: 1.56

## CCCC[S+]([O-])c1sc2nc(-c3cccs3)cc(-c3ccccc3)c2c1N (single isomer, unassigned; (+)) [(+) SW033291]
[7]; daily IP treatment from 24 hours after injury, study days 7-10
  Barnes maze learning (time to locate the cup, training days 1-4): appear similar to control mice that received only sham injury
[7]; study day 11
  Barnes maze memory (time within 5 cm of the cup's prior location): behaved similarly to control mice that received only sham injury
[7]; study day 14
  foot slips from the beam: intermediate performance
15-PGDH
  15-PGDH enzyme activity in brain (cortex, cerebellum, pons and medulla): readily inhibited
[8]
  brain PGE2 levels versus vehicle: roughly double
[9]; 30, 120 and 180 minutes after single IP injection at 2.5, 5.0, 10.0 mg/kg
  PGE2 levels in rat brain cortex: elevated
[9]; 120 minutes after dosing at 10 mpk IP
  PGE2 levels in rat brain cortex: double
[9]; 180 minutes after dosing at 5 mpk IP
  PGE2 levels in rat brain cortex: double

## CCCC[S+]([O-])c1sc2nc(-c3nccs3)cc(-c3cnc(C)n3C)c2c1N (centres unmarked) [formula (X)]
Recombinant 15-PGDH
  concentration at which recombinant 15-PGDH is inhibited: 3 nM
[10]
  chemical stability when incubated with human liver extracts: chemically stable
[3]
  chemical stability in aqueous solutions: chemically stable
[4]
  concentration at which PGE2 production by cell lines is increased: 20 nM
[11]
  chemical stability when incubated with mouse liver extracts: chemically stable
[12]
  chemical stability when incubated with rat liver extracts: chemically stable
[5]; IP into mice at 50 mg/kg body weight
  immediate toxicity over 24 hours: no immediate toxicity

## CCCCC[C@H](O)/C=C/[C@H]1[C@H](O)CC(=O)[C@@H]1C/C=C\CCCC(=O)O [PGE2, prostaglandin E2]
[13]; following intravenous injection
  half-life: less than 1 min
[13]; in the circulatory system
  half-life: approximately 30 sec
